“And” between values parts separate entries of the source, which are not always exact repeats. Identical values can stand only once. Like-named read-outs stand apart in the source and are kept apart here. Where a SMILES comes first, the peptide text is derived from it. [ ]: non-standard residue; d: D form. The star is where a group is joined. Sta = CC(C)C[C@H](N)[C@@H](O)CC(=O)O; Isovaleryl = CC(C)CC(=O)*
Tests used:
ruLAP2 = ruLAP2 (Trichophyton rubrum, UniProt Q5QHG6); type: biochemical; details: for effect of inhibitor on ruLAP2 activity: Leu-AMC 5 mM; for ruLAP2 activity as percentage of control reaction without any cation / ruLAP2 activity as percentage of control reaction without inhibitor: Leu-MCA substrate, 15 min pre-incubation
ruLAP2, sequence (Q5QHG6 20-495): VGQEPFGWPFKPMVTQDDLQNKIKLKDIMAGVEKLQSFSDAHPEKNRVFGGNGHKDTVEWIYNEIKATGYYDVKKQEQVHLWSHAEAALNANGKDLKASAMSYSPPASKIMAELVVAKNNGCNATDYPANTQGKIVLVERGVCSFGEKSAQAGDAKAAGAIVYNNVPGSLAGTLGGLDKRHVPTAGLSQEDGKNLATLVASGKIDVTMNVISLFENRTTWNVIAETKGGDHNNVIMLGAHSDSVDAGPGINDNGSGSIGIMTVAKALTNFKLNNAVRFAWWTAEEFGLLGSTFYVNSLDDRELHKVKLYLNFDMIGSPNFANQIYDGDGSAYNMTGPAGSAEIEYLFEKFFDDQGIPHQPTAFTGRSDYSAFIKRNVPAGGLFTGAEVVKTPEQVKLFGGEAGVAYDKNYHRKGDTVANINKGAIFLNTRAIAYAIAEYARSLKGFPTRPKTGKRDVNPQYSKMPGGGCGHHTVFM

ruLAP1 = ruLAP1 (Trichophyton rubrum, UniProt Q5QHG5); type: biochemical; details: for effect of inhibitor on ruLAP1 activity: Leu-AMC 5 mM
ruLAP1, sequence (Q5QHG5 21-373): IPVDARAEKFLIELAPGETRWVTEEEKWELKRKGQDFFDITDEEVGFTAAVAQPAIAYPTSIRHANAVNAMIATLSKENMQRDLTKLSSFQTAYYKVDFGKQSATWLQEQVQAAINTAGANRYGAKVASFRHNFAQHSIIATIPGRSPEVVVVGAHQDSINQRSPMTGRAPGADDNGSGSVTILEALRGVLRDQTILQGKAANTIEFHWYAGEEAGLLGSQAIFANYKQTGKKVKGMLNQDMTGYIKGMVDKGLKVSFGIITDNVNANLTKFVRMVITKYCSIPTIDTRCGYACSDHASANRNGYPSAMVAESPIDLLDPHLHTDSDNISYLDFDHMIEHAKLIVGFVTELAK

fuLAP1 = fuLAP1 (Aspergillus fumigatus, UniProt Q5VJG6); assay: biochemical; type: biochemical; details: for effect of divalent cation on fuLAP1 activity: Leu-AMC, cations 0.5 mM and 1 mM; for fuLAP1 activity as percentage of control reaction without any cation / fuLAP1 activity as percentage of control reaction without inhibitor / remaining activity at 100 µM: Leu-MCA substrate, 15 min pre-incubation
fuLAP1, sequence (Q5VJG6 16-388): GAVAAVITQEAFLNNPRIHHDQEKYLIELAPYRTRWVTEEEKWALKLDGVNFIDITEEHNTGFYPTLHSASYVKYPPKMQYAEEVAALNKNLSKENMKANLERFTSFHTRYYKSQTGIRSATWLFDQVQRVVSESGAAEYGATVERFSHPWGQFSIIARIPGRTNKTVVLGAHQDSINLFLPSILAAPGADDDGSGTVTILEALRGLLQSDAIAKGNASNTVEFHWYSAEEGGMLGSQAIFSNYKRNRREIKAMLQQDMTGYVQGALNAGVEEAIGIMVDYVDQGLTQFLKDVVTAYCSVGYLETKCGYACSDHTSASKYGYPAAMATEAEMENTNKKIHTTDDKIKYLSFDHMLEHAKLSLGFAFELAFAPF

fuLAP2 = type: biochemical, Aspergillus fumigatus; details: for effect of divalent cation on fuLAP2 activity: Leu-AMC, cations 0.5 mM and 1 mM; for effect of inhibitor on fuLAP2 activity: Leu-AMC 5 mM
[1] = biological target: T1, pkLAP (microsomal LAP from porcine kidney) (Sus scrofa, UniProt P15145); assay: Effect of inhibitors and metallic cations on LAP activity (Leu-AMC); type: biochemical; details: for pkLAP activity as percentage of control reaction without any cation / pkLAP activity as percentage of control reaction without inhibitor / remaining activity at 100 µM: Leu-MCA substrate, 15 min pre-incubation; for effect of divalent cation on pkLAP activity: Leu-AMC, cations 0.5 mM and 1 mM; for effect of inhibitor on pkLAP activity: Leu-AMC 5 mM
T1 construct: purchased Sigma; host or cells: porcine kidney
T1 sequence (P15145 1-963): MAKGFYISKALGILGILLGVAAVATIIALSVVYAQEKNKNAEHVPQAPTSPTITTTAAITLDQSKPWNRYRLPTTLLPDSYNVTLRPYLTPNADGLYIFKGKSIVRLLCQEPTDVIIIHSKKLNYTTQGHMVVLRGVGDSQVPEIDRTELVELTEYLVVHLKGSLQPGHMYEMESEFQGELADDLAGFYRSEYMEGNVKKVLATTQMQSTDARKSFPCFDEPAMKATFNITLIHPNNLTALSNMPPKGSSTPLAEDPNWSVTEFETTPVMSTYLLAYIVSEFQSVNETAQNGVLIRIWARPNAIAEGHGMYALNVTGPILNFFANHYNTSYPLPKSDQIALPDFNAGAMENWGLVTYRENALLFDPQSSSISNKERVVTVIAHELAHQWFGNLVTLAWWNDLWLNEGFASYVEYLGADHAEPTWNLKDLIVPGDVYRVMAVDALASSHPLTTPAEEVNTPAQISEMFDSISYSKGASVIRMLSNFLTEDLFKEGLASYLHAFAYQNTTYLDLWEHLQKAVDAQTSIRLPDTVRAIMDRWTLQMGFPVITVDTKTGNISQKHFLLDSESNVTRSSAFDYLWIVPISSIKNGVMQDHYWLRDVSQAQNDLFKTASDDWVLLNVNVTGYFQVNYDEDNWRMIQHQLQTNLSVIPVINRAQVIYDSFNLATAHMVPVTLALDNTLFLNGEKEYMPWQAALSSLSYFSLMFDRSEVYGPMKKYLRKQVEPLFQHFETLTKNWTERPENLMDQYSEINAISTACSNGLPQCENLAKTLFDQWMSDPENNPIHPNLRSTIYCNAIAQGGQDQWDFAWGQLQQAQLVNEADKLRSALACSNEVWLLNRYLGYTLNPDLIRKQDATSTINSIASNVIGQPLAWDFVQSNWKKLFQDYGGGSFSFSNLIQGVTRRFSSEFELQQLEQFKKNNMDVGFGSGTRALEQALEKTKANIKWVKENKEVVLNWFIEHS

[2] = cation salt 0.5 mM, Leu-MCA substrate, 15 min pre-incubation
[3] = cation salt 1 mM, Leu-MCA substrate, 15 min pre-incubation
[4] = inhibitor 100 μM, Leu-MCA substrate, 15 min pre-incubation
[5] = read-out: fuLAP1 activity as percentage of control reaction without inhibitor
[6] = read-out: pkLAP activity as percentage of control reaction without inhibitor
[7] = inhibitor 100 μM, read-out: fuLAP1 activity as percentage of control reaction without inhibitor
[8] = inhibitor 100 μM, read-out: pkLAP activity as percentage of control reaction without inhibitor
[9] = inhibitor 20 μM, Leu-MCA substrate, 15 min pre-incubation

SMILES	effect of inhibitor on ruLAP2 activity (ruLAP2)	ruLAP1 activity as percentage of control reaction without any cation (ruLAP1)	ruLAP2 activity as percentage of control reaction without any cation (ruLAP2; cation salt 0.5 mM) [%]	ruLAP2 activity as percentage of control reaction without any cation (ruLAP2; cation salt 1 mM) [%]	fuLAP1 activity as percentage of control reaction without any cation (fuLAP1; cation salt 0.5 mM) [%]	fuLAP1 activity as percentage of control reaction without any cation (fuLAP1; cation salt 1 mM) [%]	fuLAP2 activity as percentage of control reaction without any cation (fuLAP2; [2]) [%]	fuLAP2 activity as percentage of control reaction without any cation (fuLAP2; [3]) [%]	pkLAP activity as percentage of control reaction without any cation ([1]; cation salt 0.5 mM) [%]	pkLAP activity as percentage of control reaction without any cation ([1]; cation salt 1 mM) [%]	effect of inhibitor on ruLAP1 activity (ruLAP1)	other results
CC(C)C[C@H](NC(=O)[C@H]1O[C@@H]1C(=O)O)C(=O)NCCCCN=C(N)N (relative stereo) [E64, L-trans-epoxysuccinyl-leu-4-guanidinobutylamide]	blunted the activity											
[Ca+2].[Cl-].[Cl-] [Ca^++, CaCl2]		151.7% and 175.6%	126.6	141.9	54.9	43.3	110.0	165.4	177.4	161.8		effect of divalent cation on fuLAP1 activity (fuLAP1): inhibited; effect of divalent cation on fuLAP2 activity (fuLAP2): activated
[Cl-].[Cl-].[Co+2] [Co^++, CoCl2]		210.2% and 202.1%	591.2	789.7	104.3	96.5	378.0	662.7	876.1	899.8		effect of divalent cation on ruLAP2 activity (ruLAP2; Leu-AMC, cations 0.5 mM and 1 mM): highly activated; effect of divalent cation on fuLAP2 activity (fuLAP2): highly activated
[Cl][Cu][Cl] [Cu^++, CuCl2]			50.9	34.7	25.8	17.0	68.9	73.6	1422.0	1092.4		effect of divalent cation on pkLAP activity [1]: highly activated
CC(C)C[C@H](NC(=O)[C@H]1O[C@@H]1C(=O)O)C(=O)NCCCCN=C(N)N [E 64]												ruLAP1 activity as percentage of control reaction without inhibitor (ruLAP1; 100 µM): 103%; ruLAP2 activity as percentage of control reaction without inhibitor (ruLAP2; inhibitor 100 μM): 34%; fuLAP1 activity as percentage of control reaction without inhibitor (fuLAP1; inhibitor 100 μM): 190%; fuLAP2 activity as percentage of control reaction without inhibitor (fuLAP2; [4]): 71%; pkLAP activity as percentage of control reaction without inhibitor ([1]; inhibitor 100 μM): 93%
O=C(O)CN(CCN(CC(=O)O)CC(=O)O)CC(=O)O [EDTA]	more sensitive										more sensitive	effect of inhibitor on fuLAP1 activity (fuLAP1): more sensitive; remaining activity at 1000 µM (fuLAP1; [5]): 19%; remaining activity at 5000 µM (fuLAP1; [5]): 16%; fuLAP2 activity as percentage of control reaction without inhibitor (fuLAP2): 50% and 77%; remaining activity at 1000 µM [1, 6]: 68%; remaining activity at 5000 µM [1, 6]: 99%
CC(=O)N[C@@H](CC(C)C)C(=O)N[C@@H](CC(C)C)C(=O)N[C@H](C=O)CCCNC(=N)N [Leupeptin, leupeptin]	no clear inhibitory effects										no clear inhibitory effects	effect of inhibitor on fuLAP1 activity (fuLAP1; Leu-AMC 5 mM): no clear inhibitory effects; remaining activity at 100 µM (fuLAP1; [7]): 149%; effect of inhibitor on fuLAP2 activity (fuLAP2): no clear inhibitory effects; fuLAP2 activity as percentage of control reaction without inhibitor (fuLAP2; [4]): 61%; effect of inhibitor on pkLAP activity [1]: no clear inhibitory effects; remaining activity at 100 µM [1, 8]: 86%
[Cl-].[Cl-].[Mg+2] [MgCl2]		129.9% and 132.6%	121.2	110.2	68.5	72.6	97.6	108.0	130.1	146.1		
[Cl][Mn][Cl] [Mn^++, MnCl2]		120.7% and 105.2%	77.5	86.8	25.9	28.4	84.3	140.2	157.6	165.8		effect of divalent cation on fuLAP1 activity (fuLAP1): inhibited; effect of divalent cation on fuLAP2 activity (fuLAP2): activated
[Cl][Ni][Cl] [Ni, NiCl2]		74.8% and 58.1%	130.5	147.9	51.7	37.2	98.4	149.3	1187.7	1158.7		effect of divalent cation on pkLAP activity [1]: highly activated
Cc1ccc(S(=O)(=O)N[C@@H](CCCCN)C(=O)CCl)cc1 [TLCK]	no clear inhibitory effects										no clear inhibitory effects	ruLAP1 activity as percentage of control reaction without inhibitor (ruLAP1; [9]): 68%; ruLAP2 activity as percentage of control reaction without inhibitor (ruLAP2; inhibitor 20 μM): 96%; effect of inhibitor on fuLAP1 activity (fuLAP1; Leu-AMC 5 mM): no clear inhibitory effects; fuLAP1 activity as percentage of control reaction without inhibitor (fuLAP1; inhibitor 20 μM): 80%; effect of inhibitor on fuLAP2 activity (fuLAP2): no clear inhibitory effects; fuLAP2 activity as percentage of control reaction without inhibitor (fuLAP2; [9]): 120%; effect of inhibitor on pkLAP activity [1]: no clear inhibitory effects; pkLAP activity as percentage of control reaction without inhibitor ([1]; inhibitor 20 μM): 113%
Cc1ccc(S(=O)(=O)N[C@@H](Cc2ccccc2)C(=O)CCl)cc1 [TPCK]	no clear inhibitory effects										no clear inhibitory effects	ruLAP1 activity as percentage of control reaction without inhibitor (ruLAP1; [9]): 68%; ruLAP2 activity as percentage of control reaction without inhibitor (ruLAP2; inhibitor 20 μM): 79%; effect of inhibitor on fuLAP1 activity (fuLAP1; Leu-AMC 5 mM): no clear inhibitory effects; fuLAP1 activity as percentage of control reaction without inhibitor (fuLAP1; inhibitor 20 μM): 95%; effect of inhibitor on fuLAP2 activity (fuLAP2): no clear inhibitory effects; fuLAP2 activity as percentage of control reaction without inhibitor (fuLAP2; [9]): 87%; effect of inhibitor on pkLAP activity [1]: no clear inhibitory effects; pkLAP activity as percentage of control reaction without inhibitor ([1]; inhibitor 20 μM): 108%
[Cl-].[Cl-].[Zn+2] [Zn, ZnCl2]		43.0% and 68.9%	77.9	88.9	60.7	53.2	51.4	119.5	437.6	297.9		effect of divalent cation on pkLAP activity [1]: highly activated
CC(C)CC(=O)N[C@H](C(=O)N[C@H](C(=O)N[C@@H](CC(C)C)[C@@H](O)CC(=O)N[C@@H](C)C(=O)N[C@@H](CC(C)C)[C@@H](O)CC(=O)O)C(C)C)C(C)C [pepstatin, pepstatin A] (Isovaleryl-VV[Sta]A[Sta]-OH)											some sensitivity	effect of inhibitor on fuLAP1 activity (fuLAP1; Leu-AMC 5 mM): some sensitivity; remaining activity at 100 µM (fuLAP1; [7]): 14%; fuLAP2 activity as percentage of control reaction without inhibitor (fuLAP2; [4]): 73%; remaining activity at 100 µM [1, 8]: 64%
